Data: article PMC10305617, “Sesquiterpene Coumarin Ethers with Selective Cytotoxic Activities from the Roots of Ferula huber-morathii Peşmen (Apiaceae) and Unequivocal Determination of the Absolute Stereochemistry of Samarcandin” (Pharmaceuticals, 2023)
Where two headings read alike, the source gives them in different places.

Legend:
COLO 205 = assay: MTS cell viability (cytotoxic activity) assay, COLO 205; assay type: cell-based, Human; settings: Homo sapiens; COLO 205, MTS, 72 h; mean ± SD, at least three experiments
From the text: (§1) Human colorectal cancer (COLO 205, CCL-222), breast cancer (MCF-7, HTB-22), chronic myelogenous leukemia (K-562, CCL-243), and umbilical vein/vascular endothelium (HUVEC, CRL-1730) cell lines were obtained from the American Type Culture Collection. The COLO 205, MCF-7, K-562, and HUVEC cell lines were maintained in Roswell Park Memorial Institute ([…], Wisent, Montreal, QC, CANADA), Eagle′s Minimum Essential Medium (EMEM, Wisent, Montreal, QC, CANADA), Iscove’s Modified Dulbecco’s Medium (IMDM, Wisent, Montreal, QC, CANADA), and Dulbecco′s Modified Eagle Medium (DMEM, Wisent, Montreal, QC, CANADA) supplemented with 10% fetal bovine serum (Capricorn, Ebsdorfergrund, Germany), 100 U/mL penicillin, and 100 µg/mL streptomycin (Wisent, Montreal, QC, CANADA), respectively. All of the cell lines were cultured at 37 °C in a humidified atmosphere containing 5% CO2.
(§2) A 3-[4,5-dimethylthiazol-2-yl]-5-[3-carboxymethoxyphenyl]-2-[4-sulfophenyl]-2H-tetrazolium, inner salt (MTS) cell viability assay was performed to evaluate the cytotoxic activities of the sesquiterpene coumarin ethers isolated from Ferula huber-morathii. HUVEC (1 × 10^4), COLO 205 (3 × 10^4), K-562 (3 × 10^4), and MCF7 (5 × 10^4) were plated in 96-well plates. Then, 24 h later, the tested compounds were dissolved in DMSO, and the cells were exposed to the different concentrations (131.58–1.028 µM) of the compounds for 72 h. Cisplatin and doxorubicin were used as a positive control. Next, an MTS/phenazine methosulfate (PMS) (Promega, Madison, WI, USA and Sigma, St. Louis, MO, USA respectively) mixture was added to each well and incubated for 1–4 h at 37 °C. The absorbance was read on a microplate reader (Biotek, Winooski, VT, USA) at 490 nm. The cytotoxic activities of the compounds were expressed as an IC50 value. The % inhibition of cell proliferation was calculated using the formula: % Inhibition = [1-(A490test/A490cont)] × 100, where A490test = absorbance of the test sample and A490cont = absorbance of the control sample [88]. The values of the 50% inhibition of the cell proliferation (IC50) were calculated by locating the x-axis values corresponding to one-half of the absorbance values of the sample.

K-562 = assay: MTS cell viability (cytotoxic activity) assay, K-562; assay type: cell-based, Human; settings: for IC50: Homo sapiens, K562, K-562, MTS, 72 h, mean ± SD, at least three experiments
From the text: as §1, §2

MCF-7 = assay: MTS cell viability (cytotoxic activity) assay, MCF-7; assay type: cell-based, Human; settings: for IC50: Homo sapiens, MCF7, MCF-7, MTS, 72 h, mean ± SD, at least three experiments
From the text: as §1, §2

HUVEC = assay: MTS cell viability (cytotoxic activity) assay, non-cancerous HUVEC; assay type: cell-based, Human; settings: Homo sapiens, 72 h, mean ± SD, at least three experiments
From the text: as §1, §2

[1] = system: COLO 205, K-562, MCF-7 and HUVEC cell lines; assay: MTS cytotoxicity, overall verbal grading over the cell line panel; assay type: cell-based, Human; settings: authors' verbal summary over COLO 205, K-562, MCF-7, HUVEC
From the text: as §1, §2

colon (HCT116) = settings: cited from earlier work
ovarian (A2780) = settings: cited from earlier work
cervical (HeLa) = settings: cited from earlier work
lung (A549) = settings: cited from earlier work
[2] = system: chronic myelogenous leukemia (K562); settings: cited from earlier work
[3] = system: bladder cancer cells (5637); settings: cited from earlier work
stomach (AGS) = system: stomach (AGS); design: method as in PMID 25843566, PMID 20961138, PMID 20628935, PMID 22351980, PMID 25818230; settings: cited from earlier work
caspase-3 [4] = assay: Caspase-3 colorimetric activity assay in COLO 205 cells; assay type: cell-based, Human; settings: COLO 205, 24 h, highest concentration (131.58 µM)
Description: (§3) The caspase-3, -8, and -9 activities were detected by following the protocol of the caspase-3, -8, -9 colorimetric assay kits (Biovision, K106, K113, K119, Mountain View, CA, USA). The cells treated with mogoltadone (5) for 24 h were harvested and lysed with a RIPA (50 mM Tris-HCl, pH 8.0, 150 mM NaCl, 1% Nonidet P-40, 0.5% sodium deoxycholate and 0.1% SDS) cell lysis buffer. The lysed cells were centrifuged at 22,000 g for 30 min and the supernatant was collected in a tube. The samples (200 µg protein) were incubated with caspase substrates (final concentration, 200 µM) at 37° C for 2 h and read on a microplate reader at 405 nm. The fold-increase in enzyme activity was detected by comparison with the untreated control.

caspase-8 = assay: Caspase-8 colorimetric activity assay in COLO 205 cells; assay type: cell-based, Human; settings: COLO 205, 24 h, highest concentration (131.58 µM)
Description: as §3

caspase-9 = assay: Caspase-9 colorimetric activity assay in COLO 205 cells; assay type: cell-based, Human; settings: COLO 205, 24 h, highest concentration (131.58 µM)
Description: as §3

Bcl-XL [5] = assay: Western blot, Bcl-XL protein level in COLO 205; assay type: cell-based, Human; settings: COLO 205, 24 h
Description: (§4) To evaluate the effect of mogoltadone (5) on the caspase-3, Bcl-XL and β-catenin protein levels, the COLO 205 cell line was treated with mogoltadone (5) and incubated for 24 h. At the end of the incubation period, the treated cells were harvested. After that, the harvested cells were washed with cold phosphate buffered saline and lysed in a RIPA buffer. The samples were centrifuged at 24,000 g for 45 min at 4° C, and the supernatants were used to determine the procaspase-3, Bcl-XL, β-catenin, and β-actin protein levels by western blot analysis. The cellular proteins were separated on sodium dodecyl sulfate-polyacrylamide gels (SDS-PAGE, AnyKD mini protean TGX precast protein gel, Bio-Rad, Hercules, CA, USA, 4569033). The separated proteins were transferred to the polyvinylidene difluoride (PVDF) membrane using the Trans-Blot Turbo transfer system (Bio-Rad). The membrane was then blocked with a 5% non-fat milk blocking buffer and consecutively incubated with rabbit monoclonal Bcl-XL antibody (1:20,000, ab17884, Abcam), rabbit monoclonal caspase-3 antibody (1:3000, ab3235, Abcam, Cambridge, MA, USA), rabbit monoclonal beta-actin antibody (1:10,000, M01263, BOSTER, Beijing, China), and rabbit polyclonal β-catenin antibody (1/5,000, ab264263, Abcam, Cambridge, MA, USA) overnight at 4° C. […]

procaspase-3 = assay: Western blot, procaspase-3 protein level in COLO 205; assay type: cell-based, Human; settings: COLO 205, 24 h, significant at 131.58 µM
Description: as §4

β-catenin [6] = assay: Western blot, β-catenin protein level in COLO 205; assay type: cell-based, Human; settings: COLO 205, 24 h
Description: as §4

Bcl-XL [7] = assay: Western blot, Bcl-XL protein level in HUVEC; assay type: cell-based, Human
caspase-3 [8] = assay: Western blot, caspase-3 protein level in HUVEC; assay type: cell-based, Human
Description: as §4

β-catenin [9] = assay: Western blot, β-catenin protein level in HUVEC; assay type: cell-based, Human
[10] = system: ovarian carcinoma cells (CH1); design: method as in PMID 23701832; settings: cited from earlier work
[11] = system: cisplatin-resistant derivatives of the human ovarian (A2780P A2780/RCIS); settings: cited from earlier work
melanoma (SK-MEL-28) = settings: cited from earlier work
[12] = system: MCF-7 breast cancer cell line; settings: cited from earlier work
colorectal (HT29) = system: colorectal (HT29); design: method as in PMID 23701832, PMID 26503061, PMID 30944714, PMID 27002410, PMID 33676992; settings: read-out: cytotoxic activity HT29; cited from earlier work
breast (MDA-MB-231) = system: breast (MDA-MB-231); design: method as in PMID 23701832, PMID 26503061, PMID 30944714, PMID 27002410, PMID 33676992; settings: cited from earlier work

CC1=CC[C@@H]2C(C)(C)[C@H](O)CC[C@@]2(C)[C@@H]1COc1ccc2ccc(=O)oc2c1 [Feselol (3), feselol]
IC50 (COLO 205): 38.4 ± 0.8 µM
IC50 (K-562): 72.5 ± 0.74 µM
IC50 (MCF-7): 36 ± 1.29 µM
IC50 (HUVEC): 38.8 ± 0.83 µM
cytotoxicity in words [1]: moderate or strong cytotoxicity
IC50 (colon (HCT116); HCT-116, ref Soltani et al. 67, read-out: cytotoxic activity HCT-116): 28 µM
IC50 (ovarian (A2780); ref Soltani et al. 67, read-out: cytotoxic activity A2780): 20 µM
cytotoxic activity on HeLa, in words (cervical (HeLa)): did not show any cytotoxic activity
IC50 (cervical (HeLa); ref Soltani et al. 67, read-out: cytotoxic activity HeLa): 35 µM
IC50 (lung (A549); ref Soltani et al. 67, read-out: cytotoxic activity A549): 26 µM
cytotoxic activity on K562, in words [2]: did not show any cytotoxic activity
cytotoxic activity on bladder (TCC, 5637), in words ([3]; bladder (TCC, 5637)): did not show any cytotoxic activity
cytotoxic activity on stomach (AGS), in words (stomach (AGS)): did not show any cytotoxic activity

C=C1CCC2C(C)(C)C(=O)CCC2(C)C1COc1ccc2ccc(=O)oc2c1 (centres unmarked) [Mogoltadone (5), mogoltadone]
IC50 (COLO 205): 31.71 ± 0.15 µM
selectivity index K-562 (K-562; HUVEC versus K-562): > 12.46
IC50 (K-562): 21.1 ± 0.85 µM
selectivity index MCF-7 (MCF-7; HUVEC versus MCF-7): > 8.64
IC50 (MCF-7): 30.4 ± 0.6 µM
IC50 (HUVEC): > 200 µM
cytotoxicity in words [1]: moderate or strong cytotoxicity
increase in caspase-3 activity compared with the control (caspase-3 [4]): 4.72 fold
increase in caspase-8 activity compared with the control (caspase-8): 2 fold
increase in caspase-9 activity compared with the control (caspase-9): 1.97 fold
effect on Bcl-XL level (Bcl-XL [5]): suppressed
effect on procaspase-3 level (procaspase-3): decreased
effect on β-catenin levels (β-catenin [6]): decreased
effect on Bcl-XL protein level (Bcl-XL [7]): did not have a statistically significant effect
effect on caspase-3 protein level (caspase-3 [8]): did not have a statistically significant effect
effect on β-catenin protein level (β-catenin [9]): did not have a statistically significant effect
cytotoxic effect against CH1, in words ([10]; ovarian carcinoma cell line (CH1)): moderate cytotoxic effects
cytotoxic activity against A549, in words (lung (A549); ref Valiahdi et al. 29): did not find any potent cytotoxic activity
effect of combination with cisplatin on cisplatin cytotoxicity ([11]; A2780/RCIS cells, combination with cisplatin): significantly enhanced the cisplatin cytotoxicity
IC50 ([11]; A2780/RCIS, read-out: cytotoxic effect A2780/RCIS): > 50 µM
cytotoxic activity against SK-MEL-28, in words (melanoma (SK-MEL-28); ref Valiahdi et al. 29): did not find any potent cytotoxic activity
IC50 ([12]; read-out: cytotoxic effect MCF-7): > 100 µM

CC1=CC[C@@H]2C(C)(C)C(=O)CC[C@@]2(C)[C@@H]1COc1ccc2ccc(=O)oc2c1 [Conferone (1), conferone]
IC50 (COLO 205): 27.6 ± 0.69 µM
IC50 (K-562): 55.5 ± 0.94 µM
IC50 (MCF-7): 34 ± 0.68 µM
IC50 (HUVEC): 46.1 ± 0.99 µM
cytotoxicity in words ([1]; listed as 1): moderate or strong cytotoxicity
cytotoxicity in words ([1]; listed as conferone (1)): moderate cytotoxic effect
IC50 ([10]; ovarian carcinoma cells (CH1)): 7.8 µM
IC50 (colorectal (HT29)): 20 µM
cytotoxic activity MDA-MB-231 (breast (MDA-MB-231)): 30 µg/mL
IC50 (colon (HCT116); HCT116, read-out: cytotoxic activity HCT116): 32 µM
IC50 (ovarian (A2780); read-out: cytotoxic activity A2780): 32 µM
IC50 (cervical (HeLa); read-out: cytotoxic activity HeLa): 38 µM
IC50 (lung (A549); read-out: cytotoxic activity A549): 38 µM
IC50 ([11]; A2780P A2780/RCIS, read-out: cytotoxic activity A2780P A2780/RCIS): 25 µM
IC50 (melanoma (SK-MEL-28); read-out: cytotoxic activity SK-MEL-28): 64 µM
cytotoxic activity K562 [2]: 86.12 µg/mL
IC50 ([12]; read-out: cytotoxic activity MCF-7): > 100 µM
cytotoxic effect on bladder cancer cells (5637), in words [3]; 5637: no cytotoxic effect
